Source: patent publication US6858621B2, “2-(quinolonyl)-fused heterocycles as androgen receptor modulators” (Ortho-McNeil Pharmaceutical, Inc., priority 2002, dated 2005)

Molecular target: T1, androgen receptor LBD (Panvera) (Rattus norvegicus, UniProt P15207)
T1 construct: 5 pmol androgen receptor LBD (Panvera); purchased Panvera
T1 sequence (P15207 651-882 limits assumed): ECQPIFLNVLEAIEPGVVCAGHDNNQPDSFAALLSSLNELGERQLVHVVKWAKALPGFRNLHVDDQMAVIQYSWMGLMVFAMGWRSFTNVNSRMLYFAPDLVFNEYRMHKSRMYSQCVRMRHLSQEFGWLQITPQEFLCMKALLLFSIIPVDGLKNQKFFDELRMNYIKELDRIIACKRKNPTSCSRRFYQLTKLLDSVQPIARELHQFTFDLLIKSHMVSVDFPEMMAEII
Experiment: Androgen Receptor Filtration Binding Assay (Panvera receptor)
Conditions: Panvera receptor data; 0.5 nM [3H] R1881 tracer
Method: In Vitro Assay—Androgen Receptor Filtration Binding Assay
The assay was run on a 96 well plate with each well filled with total reaction volume 150 μL, of a solution containing 5 pmol androgen receptor LBD (Panvera) or […] of freshly prepared rat cytosol, 0.5 nM [^3H] R1881 tracer (NEN), 1.5 μL (10 μM) test compound or vehicle (diluted in 30% DMSO, final concentration of DMSO 0.75%) and […] of TED buffer. (TED buffer contains 10 mM Tris.HCl pH 7.4, 1 mM sodium molybdate (60 mg/250 mL), 1.5 mM EDTA, 1 mM DTT and 10% (v/v) glycerol.)
On day one, the solution containing receptor, tracer and TED buffer was distributed onto a 96 well plate. Diluted test compound or control vehicle was then added to individual wells and the plate incubated ay 4° C. overnight.
On day two, to each well was then added 20 μL human γ-globulin (ICN 823102), prepared at 25 mg/ml in TE pH 8.0 and 55 μL 40% polyethylene glycol 8000 (J T Baker U222-08), prepared in TE pH 8.0. […] The plate wells were then counted on a TopCount (Packard).
Representative compounds of the present invention were tested for binding to the androgen receptor according to the procedure described above with results as listed in Table 3. % Inhibition values less that 0% indicate no binding at the […] level. The negative number(s) are a result of experimental error from the low number of counts detected.

Row | Structure (SMILES) | IC50 [µM]
1 | O=c1cc(C(F)(F)F)c2c3c(ccc2[nH]1)OCCO3 [compound 1] | 5.2
2 | O=c1cc(C(F)(F)F)c2c3c(ccc2[nH]1)OC(F)(F)C(F)(F)O3 [compound 2] | 4.8
